Reference: patent EP4653448A1, “COMPOUND FOR RNA CAPPING AND USE THEREOF” (Guangzhou Henovcom Bioscience Co. Ltd., priority 2023, dated 2024)

Experiments:
HEK293T cells = assay: Expression efficiency of capped luciferase mRNAs in HEK293T cells; type: cell-based; details: 6 h after transfection of capped luciferase mRNA
Procedure: • 1) HNE293T cells were cultured in DMEM medium containing 10% FBS and penicillin/streptomycin at 37°C and 5% CO2. • 2) The cultured HEK293T cells were spread in a 96-well plate with 1.25 × 10^4 cells per well. • 3) After the cells completely adhered to the wall, 0.5 µg of a mixture of mRNA sample and Polyplus jet[…] was added to each well of cells, and cultured at 37°C and 5% CO2 for 6 h. • 4) The growth medium was removed from the cells to be tested and the cells were rinsed with PBS. After centrifugation to remove PBS, 50 µL of 1x lysis buffer was added thereto, and cells and all liquid were transferred to a microcentrifuge tube, and then centrifuged at 12000 x g at 4°C for 2 min. • 5) The supernatant was transferred to a new tube. Fluorescence readings were detected using the ONE-Glo Luciferase Assay System Kit.
All test compounds, N-7413, negative control and blank control were tested under the same conditions, and some experimental results in the test results are shown in Table 3. Table 3. Relative fluorescence readings for capped mRNAs
The assay was performed according to the method described in Example 21. All test compounds, N-7413, negative control and blank control were tested under the same conditions, and some experimental results in the test results are shown in Table 5. Table 5 Relative fluorescence readings for capped mRNAs

T7 RNA Polymerase = T7 RNA Polymerase (Escherichia phage T7, UniProt P00573); assay: Detection of the efficiency of mRNA capping synthesis (in vitro transcription, product yield); type: biochemical; details: 20 µL mRNA synthesis reaction system
Procedure: • 1) The plasmids were linearized and the DNA templates were purified. • 2) The mRNA was synthesized by in vitro transcription, using the capping structure prepared in the present disclosure, positive control CleanCap®AG (3'OMe) (Trilink, N-7413), negative control (uncapped mRNA) and blank control (DNase/RNase-Free water), respectively. Reaction system
The reaction was carried out at 37°C for 2 to 3 h. TURBO DNase digestion was carried out for 15 min. The mRNA was precipitated by LiCl for 30 min or more or overnight, and the mRNA precipitate was washed with 75% ethanol, dried briefly to evaporate the ethanol, and the mRNA was redissolved with RNase-Free water.
In the reaction system listed in Table 1, since the solubility of different test compounds varies in different solutions, adjustments can be made as needed. For ease of operation, the commonly used concentrations are 10 mM and 100 mM. […] If the initial concentration of the test compound is 10 mM, the dosage is 8 µL. Regardless of the initial concentration, the dosages of different test compounds were the same, and the final concentrations were also the same.
For example, when testing compounds S17 and S19, their initial concentration was 10 mM, and the addition volume was 8 µL. When testing compounds 5 and 6, their initial concentration was 100 mM, and the addition volume was 0.8 µL.
The assay was performed according to the method described in Example 20.

[1] = biological target: streptavidin-coated magnetic beads (Streptomyces avidinii, UniProt P22629); assay: Biotin affinity assay (capture of capped mRNA on streptavidin beads and elution); type: binding; details: capped mRNA bound to streptavidin beads, eluted at 80°C
Procedure: • 1) S1-30nt-mRNA (mRNA capped with compound S1, with a length of 30 nt) was prepared and purified by LiCl; • 2) 500 µL of streptavidin-coated magnetic beads (2 mg) were taken, and the test tube was placed on a magnetic stand to collect the magnetic beads. The supernatant was removed and discarded, and the magnetic beads were washed; • 3) The magnetic beads were resuspended in 600 µL of TES buffer, and 5.5 µg of S1-30nt-mRNA from 1) was added to the magnetic bead resuspension and mixed well; the mixture was incubated at room temperature for one hour on a shaker or vortex mixer; • 4) The sample was placed on the magnetic stand for 5 min, and after the solution became clear, the supernatant was removed; • 5) While keeping the sample on the magnetic stand, the magnetic beads were rinsed three times with TES buffer; • 6) While keeping the sample on the magnetic stand, the magnetic beads were rinsed three times with distilled water; • 7) The deionized water was removed from the beads, and 60 µL of elution buffer heated to 80°C was added and mixed well. The mixture was heated to 80°C for 3 min in a constant-temperature metal bath, then placed on the magnetic stand for 3 min. The supernatant was aspirated as the elution product. • 8) Experimental results

[2] = reading of N-7413 = 1 (Table 5)
[3] = 0.5 µg per well, reading of N-7413 = 1 (Table 3)
[4] = test compound 4 mM, 37°C 2 to 3 h (Table 2)

Chain of T7 RNA Polymerase (P00573 whole entry): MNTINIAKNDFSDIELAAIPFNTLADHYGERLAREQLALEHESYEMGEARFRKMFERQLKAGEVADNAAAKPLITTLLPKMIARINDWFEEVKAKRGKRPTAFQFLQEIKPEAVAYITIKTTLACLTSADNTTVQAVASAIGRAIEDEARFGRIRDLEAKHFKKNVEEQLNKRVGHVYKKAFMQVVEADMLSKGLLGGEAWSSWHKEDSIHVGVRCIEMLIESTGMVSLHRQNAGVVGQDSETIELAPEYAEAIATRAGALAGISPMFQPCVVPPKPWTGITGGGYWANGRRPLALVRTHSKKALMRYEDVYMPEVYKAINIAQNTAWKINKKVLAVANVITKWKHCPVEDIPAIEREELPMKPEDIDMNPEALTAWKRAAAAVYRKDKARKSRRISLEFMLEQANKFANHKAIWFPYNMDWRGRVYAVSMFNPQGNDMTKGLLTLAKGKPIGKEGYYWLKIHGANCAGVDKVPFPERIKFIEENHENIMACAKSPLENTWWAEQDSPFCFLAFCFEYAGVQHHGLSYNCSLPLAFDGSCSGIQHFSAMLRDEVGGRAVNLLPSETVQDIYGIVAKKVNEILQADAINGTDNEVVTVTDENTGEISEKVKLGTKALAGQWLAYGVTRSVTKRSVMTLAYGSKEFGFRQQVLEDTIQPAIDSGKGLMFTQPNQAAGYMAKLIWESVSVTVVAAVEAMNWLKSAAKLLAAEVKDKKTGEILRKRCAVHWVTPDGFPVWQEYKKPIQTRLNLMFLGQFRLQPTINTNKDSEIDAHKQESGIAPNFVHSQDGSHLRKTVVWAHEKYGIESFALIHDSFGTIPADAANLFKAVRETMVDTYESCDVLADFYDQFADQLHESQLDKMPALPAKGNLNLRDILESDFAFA
Chain of streptavidin-coated magnetic beads (P22629 25-183): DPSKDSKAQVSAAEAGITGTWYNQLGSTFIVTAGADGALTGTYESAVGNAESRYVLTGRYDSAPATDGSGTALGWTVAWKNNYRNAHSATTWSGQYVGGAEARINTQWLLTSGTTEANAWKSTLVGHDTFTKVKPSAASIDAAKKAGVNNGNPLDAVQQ

SMILES | Relative fluorescence reading (HEK293T cells; [2]) | Final product mass (T7 RNA Polymerase; method of Example 20 (Table 4)) [µg] | Relative fluorescence reading (HEK293T cells; [3]) | Final product mass (T7 RNA Polymerase; [4]) [µg] | recovery rate [1]
COCC1(F)C(COP(=O)(O)OP(=O)(O)OP(=O)(O)OCC2OC(n3cnc4c(N)ncnc43)C(OC)C2OP(=O)([O-])OCC2OC(n3cnc4c(=O)[nH]c(N)nc43)C(O)C2O)OC(n2c[n+](Cc3ccc(F)cc3)c3c(=O)[nH]c(N)nc32)C1O (stereo not shown) [Compound D91] | 1.93 | 113 | – | – | –
COCC1(F)C(COP(=O)(O)OP(=O)(O)OP(=O)(O)OCC2OC(n3cnc4c(N)ncnc43)C(OC)C2OP(=O)([O-])OCC2OC(n3cnc4c(=O)[nH]c(N)nc43)C(O)C2O)OC(n2c[n+](Cc3ccc(OC)cc3)c3c(=O)[nH]c(N)nc32)C1O (stereo not shown) [Compound D94] | 1.85 | 116 | – | – | –
CO[C@@H]1[C@H](OP(=O)([O-])OC[C@H]2O[C@@H](n3cnc4c(=O)[nH]c(N)nc43)[C@H](O)[C@@H]2O)[C@@H](COP(=O)(O)OP(=O)(O)OP(=O)(O)OC[C@H]2O[C@@H](n3c[n+](C)c4c(=O)[nH]c(N)nc43)[C@H](O)[C@@H]2NC(=O)CCCC[C@@H]2SC[C@@H]3NC(=O)N[C@@H]32)O[C@H]1n1cnc2c(N)ncnc21 [Compound S169] | – | – | 1.35 | 131 | above 95%
CO[C@@H]1[C@H](OP(=O)([O-])OC[C@H]2O[C@@H](n3cnc4c(=O)[nH]c(N)nc43)[C@H](O)[C@@H]2O)[C@@H](COP(=O)(O)OP(=O)(O)OP(=O)(O)OC[C@H]2O[C@@H](n3c[n+](C)c4c(=O)[nH]c(N)nc43)[C@H](O)[C@@H]2Cn2cc(CNC(=O)CCCC[C@@H]3SC[C@@H]4NC(=O)N[C@@H]43)nn2)O[C@H]1n1cnc2c(N)ncnc21 [Compound S41] | – | – | 1.81 | 126 | above 95%
CO[C@@H]1[C@H](OP(=O)([O-])OC[C@H]2O[C@@H](n3cnc4c(=O)[nH]c(N)nc43)[C@H](O)[C@@H]2O)[C@@H](COP(=O)(O)OP(=O)(O)OP(=O)(O)OC[C@H]2O[C@@H](n3c[n+](C)c4c(=O)[nH]c(N)nc43)[C@H](O)[C@]2(F)CNC(C)=O)O[C@H]1n1cnc2c(N)ncnc21 [Compound D31] | 1.73 | 133 | – | – | –
COCC1(F)C(COP(=O)(O)OP(O)(=S)OP(=O)(O)OCC2OC(n3cnc4c(N)ncnc43)C(OC)C2OP(=O)([O-])OCC2OC(n3cnc4c(=O)[nH]c(N)nc43)C(O)C2O)OC(n2c[n+](C)c3c(=O)[nH]c(N)nc32)C1O (stereo not shown) [Compound D97] | 2.05 | 91 | – | – | –
COCC1(N=[N+]=[N-])C(COP(=O)(O)OP(=O)(O)OP(=O)(O)OCC2OC(n3cnc4c(N)ncnc43)C(OC)C2OP(=O)([O-])OCC2OC(n3cnc4c(=O)[nH]c(N)nc43)C(O)C2O)OC(n2c[n+](C)c3c(=O)[nH]c(N)nc32)C1O (stereo not shown) [Compound D86] | 1.35 | 111 | – | – | –
COCC1(F)C(COP(=O)(O)OP(=O)(O)OP(=O)(O)OCC2OC(n3cnc4c(N)ncnc43)C(OC)C2OP(=O)([O-])OCC2OC(n3cnc4c(=O)[nH]c(N)nc43)C(O)C2O)OC(n2c[n+](Cc3ccc(C)cc3)c3c(=O)[nH]c(N)nc32)C1O (stereo not shown) [Compound D93] | 1.95 | 105 | – | – | –
CNc1ncnc2c1ncn2C1OC(COP(=O)(O)OP(=O)(O)OP(=O)(O)OCC2OC(n3c[n+](C)c4c(=O)[nH]c(N)nc43)C(O)C2(C)F)C(OP(=O)([O-])OCC2OC(n3cnc4c(=O)[nH]c(N)nc43)C(O)C2O)C1OC (stereo not shown) [Compound D95] | 0.83 | 111 | – | – | –
CNc1ncnc2c1ncn2C1OC(COP(=O)(O)OP(=O)(O)OP(=O)(O)OCC2OC(n3c[n+](C)c4c(=O)[nH]c(N)nc43)C(O)C2(F)COC)C(OP(=O)([O-])OCC2OC(n3cnc4c(=O)[nH]c(N)nc43)C(O)C2O)C1OC (stereo not shown) [Compound D96] | 2.96 | 94 | – | – | –
COCC1(F)C(COP(=O)(O)OP(=O)(O)CP(=O)(O)OCC2OC(n3cnc4c(N)ncnc43)C(OC)C2OP(=O)([O-])OCC2OC(n3cnc4c(=O)[nH]c(N)nc43)C(O)C2O)OC(n2c[n+](C)c3c(=O)[nH]c(N)nc32)C1O (stereo not shown) [Compound D24] | 1.08 | 83 | – | – | –
CC[n+]1cn(C2OC(COP(=O)(O)OP(=O)(O)OP(=O)(O)OCC3OC(n4cnc5c(N)ncnc54)C(OC)C3OP(=O)([O-])OCC3OC(n4cnc5c(=O)[nH]c(N)nc54)C(O)C3O)C(F)(COC)C2O)c2nc(N)[nH]c(=O)c21 (stereo not shown) [Compound D89] | 1.52 | 110 | – | – | –
CNc1nc2c(c(=O)[nH]1)[n+](C)cn2[C@@H]1O[C@H](COP(=O)(O)OP(=O)(O)OP(=O)(O)OC[C@H]2O[C@@H](n3cnc4c(N)ncnc43)[C@H](OC)[C@@H]2OP(=O)([O-])OC[C@H]2O[C@@H](n3cnc4c(=O)[nH]c(N)nc43)[C@H](O)[C@@H]2O)[C@@](F)(COC)[C@H]1O [Compound D87] | 1.55 | 98 | – | – | –
COCC1(F)C(COP(=O)(O)OP(=O)(O)OP(=O)(O)OCC2OC(n3cnc4c(N)ncnc43)C(OC)C2OP(=O)([O-])OCC2OC(n3cnc4c(=O)[nH]c(N)nc43)C(O)C2O)OC(n2c[n+](Cc3ccc(Cl)cc3)c3c(=O)[nH]c(N)nc32)C1O (stereo not shown) [Compound D92] | 1.78 | 109 | – | – | –
CNc1ccccc1C(=O)NC[C@H]1[C@@H](O)[C@H](n2c[n+](C)c3c(=O)[nH]c(N)nc32)O[C@@H]1COP(=O)([O-])OP(=O)(O)OP(=O)(O)OC[C@H]1O[C@@H](n2cnc3c(N)ncnc32)[C@H](OC)[C@@H]1OP(=O)(O)OC[C@H]1O[C@@H](n2cnc3c(=O)[nH]c(N)nc32)[C@H](O)[C@@H]1O [Compound S165] | – | – | 0.34 | 88 | –
COCC1(F)C(COP(=O)(O)CP(=O)(O)OP(=O)(O)OCC2OC(n3cnc4c(N)ncnc43)C(OC)C2OP(=O)([O-])OCC2OC(n3cnc4c(=O)[nH]c(N)nc43)C(O)C2O)OC(n2c[n+](C)c3c(=O)[nH]c(N)nc32)C1O (stereo not shown) [Compound D23] | 0.93 | 96 | – | – | –
CO[C@@H]1[C@H](OP(=O)([O-])OC[C@H]2O[C@@H](n3cnc4c(=O)[nH]c(N)nc43)[C@H](O)[C@@H]2O)[C@@H](COP(=O)(O)OP(=O)(O)OP(=O)(O)OC[C@H]2O[C@@H](n3c[n+](C)c4c(=O)[nH]c(N)nc43)[C@H](O)[C@@H]2OC)O[C@H]1n1cnc2c(N)ncnc21 [Compound N-7413, reference compound] | 1.00 | 122 | 1.00 | 122 | –
COCCOCCOCCOCCOCC(=O)NC[C@H]1[C@@H](O)[C@H](n2c[n+](C)c3c(=O)[nH]c(N)nc32)O[C@@H]1COP(=O)([O-])OP(=O)(O)OP(=O)(O)OC[C@H]1O[C@@H](n2cnc3c(N)ncnc32)[C@H](OC)[C@@H]1OP(=O)(O)OC[C@H]1O[C@@H](n2cnc3c(=O)[nH]c(N)nc32)[C@H](O)[C@@H]1O [Compound 6] | – | – | 1.90 | 117 | –
